Among the data in patent publication US9266878B2, “Phosphatidylinositol 3-kinase inhibitors” (Gilead Calistoga LLC, priority 2012, dated 2016) are IC50 values, retold here.

What all share (assay): Enzymatic activity of PI3K isoforms, TR-FRET assay (PIP3 formation)
Assay type in all cases: biochemical

One experiment deals with PI3Kβ (Homo sapiens (Human), UniProt P42338). In outline:
(§1)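 IC50 (nM) reflects inhibition of PIP3 formation by purified recombinant heterodimeric PI3K, measured as loss of TR-FRET signal. The read-out comes from competition between enzyme-made PIP3 and labelled PIP3 for binding to the GRP-1 pleckstrin homology domain.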

In the next experiment the target is PI3Kγ (Homo sapiens (Human), UniProt P48736). As to conditions: bound given in uM. In outline:
as §1

The target in the next experiment is PI3Kα (Homo sapiens (Human), UniProt P42336). As to conditions: bound given in uM. The method, boiled down:
(§2)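 After 30 min at 25° C, reactions were quenched with 10 mM EDTA plus 10 nM labeled-PIP3 and 35 nM Europium-GRP-1, and TR-FRET was read (Ex 340, Em 615/665 nm). Enzymes were purified recombinant heterodimers; product PIP3 competes off the labeled tracer. Values given as IC50, nM.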

The target of the next experiment is PI3Kδ (Homo sapiens (Human), UniProt O00329). The method, boiled down: as §2
Sequence of PI3Kδ (O00329 whole entry): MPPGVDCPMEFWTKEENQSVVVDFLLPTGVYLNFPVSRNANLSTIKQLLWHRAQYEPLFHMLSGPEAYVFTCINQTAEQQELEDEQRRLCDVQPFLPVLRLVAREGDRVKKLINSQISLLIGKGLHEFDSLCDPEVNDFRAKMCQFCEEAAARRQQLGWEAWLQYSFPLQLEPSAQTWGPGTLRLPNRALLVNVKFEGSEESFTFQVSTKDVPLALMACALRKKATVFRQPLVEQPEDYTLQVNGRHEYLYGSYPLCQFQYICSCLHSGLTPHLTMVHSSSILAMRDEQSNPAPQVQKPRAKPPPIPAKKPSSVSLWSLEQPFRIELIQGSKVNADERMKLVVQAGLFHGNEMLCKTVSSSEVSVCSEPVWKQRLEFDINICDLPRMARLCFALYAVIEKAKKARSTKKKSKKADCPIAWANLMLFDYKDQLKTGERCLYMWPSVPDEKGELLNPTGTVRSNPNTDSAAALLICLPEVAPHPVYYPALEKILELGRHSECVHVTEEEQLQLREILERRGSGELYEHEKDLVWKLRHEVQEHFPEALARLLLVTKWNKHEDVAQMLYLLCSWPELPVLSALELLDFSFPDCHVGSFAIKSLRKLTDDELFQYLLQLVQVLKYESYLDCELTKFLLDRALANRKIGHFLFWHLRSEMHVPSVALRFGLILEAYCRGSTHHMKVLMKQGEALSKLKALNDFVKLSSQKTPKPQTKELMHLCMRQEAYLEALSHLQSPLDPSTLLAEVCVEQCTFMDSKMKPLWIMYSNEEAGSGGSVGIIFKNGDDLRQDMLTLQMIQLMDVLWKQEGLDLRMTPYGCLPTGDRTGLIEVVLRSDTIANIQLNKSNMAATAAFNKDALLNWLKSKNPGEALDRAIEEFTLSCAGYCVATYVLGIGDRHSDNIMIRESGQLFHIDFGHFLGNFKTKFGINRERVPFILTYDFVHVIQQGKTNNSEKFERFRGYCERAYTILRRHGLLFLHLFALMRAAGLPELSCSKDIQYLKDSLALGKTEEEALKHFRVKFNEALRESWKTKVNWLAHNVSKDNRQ
Sequence of PI3Kδ (P27986 whole entry partner): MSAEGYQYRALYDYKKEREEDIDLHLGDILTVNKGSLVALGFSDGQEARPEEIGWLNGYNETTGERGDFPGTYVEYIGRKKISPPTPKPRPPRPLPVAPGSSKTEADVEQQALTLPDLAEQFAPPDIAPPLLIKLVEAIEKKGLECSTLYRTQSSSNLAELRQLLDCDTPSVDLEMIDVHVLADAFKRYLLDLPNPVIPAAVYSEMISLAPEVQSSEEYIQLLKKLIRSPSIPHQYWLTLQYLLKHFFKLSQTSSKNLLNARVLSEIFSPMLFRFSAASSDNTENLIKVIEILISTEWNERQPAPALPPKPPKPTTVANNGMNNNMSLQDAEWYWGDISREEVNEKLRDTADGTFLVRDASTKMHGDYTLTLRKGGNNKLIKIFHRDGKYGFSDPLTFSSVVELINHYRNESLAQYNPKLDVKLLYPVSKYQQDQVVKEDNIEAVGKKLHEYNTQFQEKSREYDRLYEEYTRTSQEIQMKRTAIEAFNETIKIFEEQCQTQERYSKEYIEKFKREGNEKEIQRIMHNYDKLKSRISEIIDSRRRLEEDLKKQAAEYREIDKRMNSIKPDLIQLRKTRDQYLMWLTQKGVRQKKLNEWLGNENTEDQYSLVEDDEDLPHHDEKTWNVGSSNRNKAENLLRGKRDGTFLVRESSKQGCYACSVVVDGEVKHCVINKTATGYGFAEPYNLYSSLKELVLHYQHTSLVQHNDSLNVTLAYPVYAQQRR

For orientation: IC50 means the concentration at which inhibition is half-maximal.

Sequence of PI3Kγ (P48736 whole entry): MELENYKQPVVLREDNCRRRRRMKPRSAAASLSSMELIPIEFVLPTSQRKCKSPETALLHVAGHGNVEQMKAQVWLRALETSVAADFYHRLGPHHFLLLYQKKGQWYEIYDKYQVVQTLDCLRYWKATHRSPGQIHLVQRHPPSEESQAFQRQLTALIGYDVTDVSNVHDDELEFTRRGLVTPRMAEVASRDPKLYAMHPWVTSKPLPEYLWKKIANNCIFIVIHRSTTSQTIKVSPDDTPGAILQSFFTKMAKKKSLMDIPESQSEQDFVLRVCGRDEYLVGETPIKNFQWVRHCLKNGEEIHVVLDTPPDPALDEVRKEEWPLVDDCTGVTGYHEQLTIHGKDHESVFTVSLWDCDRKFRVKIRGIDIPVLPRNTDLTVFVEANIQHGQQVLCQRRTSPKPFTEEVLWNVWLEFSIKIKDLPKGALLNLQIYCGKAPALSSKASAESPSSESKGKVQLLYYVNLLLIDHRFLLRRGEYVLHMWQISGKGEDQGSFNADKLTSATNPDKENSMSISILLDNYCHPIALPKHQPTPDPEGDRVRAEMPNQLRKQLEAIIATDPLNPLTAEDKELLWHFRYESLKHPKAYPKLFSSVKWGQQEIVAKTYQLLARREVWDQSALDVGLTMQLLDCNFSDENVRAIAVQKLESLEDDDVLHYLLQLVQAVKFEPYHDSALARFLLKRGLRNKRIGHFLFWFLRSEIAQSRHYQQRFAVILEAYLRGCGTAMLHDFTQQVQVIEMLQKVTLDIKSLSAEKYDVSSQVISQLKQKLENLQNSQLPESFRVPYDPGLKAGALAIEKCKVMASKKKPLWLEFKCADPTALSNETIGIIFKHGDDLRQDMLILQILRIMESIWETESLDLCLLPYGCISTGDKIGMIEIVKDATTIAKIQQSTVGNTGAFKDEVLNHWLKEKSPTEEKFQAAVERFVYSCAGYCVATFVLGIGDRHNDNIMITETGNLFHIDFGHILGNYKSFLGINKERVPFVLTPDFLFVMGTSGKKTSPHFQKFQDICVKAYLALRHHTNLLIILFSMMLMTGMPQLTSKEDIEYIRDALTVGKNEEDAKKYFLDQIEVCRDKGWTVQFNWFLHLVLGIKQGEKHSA
Sequence of PI3Kγ (Q8WYR1 whole entry partner): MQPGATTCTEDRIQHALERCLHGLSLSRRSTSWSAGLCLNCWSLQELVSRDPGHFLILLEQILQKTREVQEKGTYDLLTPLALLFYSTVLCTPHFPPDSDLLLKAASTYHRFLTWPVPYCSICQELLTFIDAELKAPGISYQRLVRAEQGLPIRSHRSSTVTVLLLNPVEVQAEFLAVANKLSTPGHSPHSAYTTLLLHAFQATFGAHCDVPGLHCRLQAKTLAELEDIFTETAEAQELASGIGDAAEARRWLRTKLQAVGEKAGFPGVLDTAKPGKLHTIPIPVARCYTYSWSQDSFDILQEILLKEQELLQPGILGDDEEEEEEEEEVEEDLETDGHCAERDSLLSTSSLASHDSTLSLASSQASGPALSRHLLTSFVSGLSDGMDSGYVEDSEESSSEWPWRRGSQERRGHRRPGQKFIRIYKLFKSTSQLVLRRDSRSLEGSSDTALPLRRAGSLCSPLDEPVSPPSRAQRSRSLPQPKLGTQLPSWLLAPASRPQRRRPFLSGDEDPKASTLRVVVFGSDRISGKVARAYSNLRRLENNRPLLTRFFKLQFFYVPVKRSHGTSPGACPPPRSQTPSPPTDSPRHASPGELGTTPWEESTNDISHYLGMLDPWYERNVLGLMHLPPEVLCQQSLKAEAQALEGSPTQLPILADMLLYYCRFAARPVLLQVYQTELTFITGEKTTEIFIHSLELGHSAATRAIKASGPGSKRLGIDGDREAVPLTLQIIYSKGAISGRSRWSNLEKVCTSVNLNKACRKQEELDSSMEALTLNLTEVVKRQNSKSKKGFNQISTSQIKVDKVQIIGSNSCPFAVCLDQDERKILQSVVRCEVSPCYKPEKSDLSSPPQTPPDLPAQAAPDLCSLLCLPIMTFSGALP
Sequence of PI3Kβ (P42338 whole entry, the tested form may be a part): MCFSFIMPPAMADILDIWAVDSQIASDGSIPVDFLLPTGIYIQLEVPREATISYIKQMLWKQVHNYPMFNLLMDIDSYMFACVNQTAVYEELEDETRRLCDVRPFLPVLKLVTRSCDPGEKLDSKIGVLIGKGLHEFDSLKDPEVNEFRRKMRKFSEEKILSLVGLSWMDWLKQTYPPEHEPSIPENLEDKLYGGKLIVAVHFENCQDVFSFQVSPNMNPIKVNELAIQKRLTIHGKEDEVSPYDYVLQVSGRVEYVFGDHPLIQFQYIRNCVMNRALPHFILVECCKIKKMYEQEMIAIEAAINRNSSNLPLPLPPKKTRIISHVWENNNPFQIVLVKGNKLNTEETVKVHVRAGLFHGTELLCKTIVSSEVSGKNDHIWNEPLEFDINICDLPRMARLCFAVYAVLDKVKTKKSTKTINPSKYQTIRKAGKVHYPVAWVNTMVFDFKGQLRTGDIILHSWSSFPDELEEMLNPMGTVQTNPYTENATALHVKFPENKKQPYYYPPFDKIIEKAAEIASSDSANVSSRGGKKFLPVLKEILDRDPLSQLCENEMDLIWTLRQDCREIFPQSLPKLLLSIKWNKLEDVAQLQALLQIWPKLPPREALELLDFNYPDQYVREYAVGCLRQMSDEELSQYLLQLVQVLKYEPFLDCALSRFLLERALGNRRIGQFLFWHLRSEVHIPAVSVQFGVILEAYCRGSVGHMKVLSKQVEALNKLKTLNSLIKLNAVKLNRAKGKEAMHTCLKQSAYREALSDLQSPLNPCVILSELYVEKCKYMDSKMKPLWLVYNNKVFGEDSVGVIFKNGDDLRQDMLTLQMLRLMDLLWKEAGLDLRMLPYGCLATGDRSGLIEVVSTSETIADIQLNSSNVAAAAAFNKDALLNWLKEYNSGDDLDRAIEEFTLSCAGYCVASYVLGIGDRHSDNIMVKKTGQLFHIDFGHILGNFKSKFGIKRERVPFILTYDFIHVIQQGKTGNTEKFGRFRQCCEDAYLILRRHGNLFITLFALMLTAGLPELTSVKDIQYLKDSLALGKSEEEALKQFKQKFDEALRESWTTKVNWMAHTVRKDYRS
Sequence of PI3Kβ (P27986 whole entry partner, the tested form may be a part): as the sequence (P27986 whole entry partner) above

Consider `C[C@H](Nc1ncnc(N)c1C#Cc1ccc(F)cn1)c1nc2cccc(F)c2c(=O)n1-c1cc(F)cc(F)c1` [Compound 7a, (S)-2-(1-(6-amino-5-((5-fluoropyridin-2-yl)ethynyl)pyrimidin-4-ylamino)ethyl)-3-(3,5-difluorophenyl)-5-fluoroquinazolin-4(3H)-one], for which the half-maximal inhibitory concentration (IC50) against PI3Kβ (bound given in uM) is over 1 µM; at PI3Kγ, over 1 µM; against PI3Kα, over 1 µM; on PI3Kδ (bound given in nM) it was under 100 nM.
Turning to `COC[C@@H](Nc1ncnc(N)c1C#Cc1ccc(F)cn1)c1nc2cccc(Cl)c2c(=O)n1-c1cc(F)cc(F)c1` [146b], the IC50 at PI3Kβ (bound given in uM) is over 1 µM; at PI3Kγ, over 1 µM; at PI3Kα, over 1 µM; on PI3Kδ (bound given in nM) it was under 100 nM.
As for `C[C@H](Nc1ncnc(N)c1C#Cc1cnccn1)c1nc2cccc(C#N)c2c(=O)n1-c1ccccc1` [Compound 55a, (S)-2-(1-((6-amino-5-(pyrazin-2-ylethynyl)pyrimidin-4-yl)amino)ethyl)-4-oxo-3-phenyl-3,4-dihydroquinazoline-5-carbonitrile], the IC50 is over 1 µM at PI3Kβ (bound given in uM), over 1 µM against PI3Kγ, over 1 µM at PI3Kα and under 100 nM on PI3Kδ (bound given in nM).
For `C[C@H](O)C#Cc1c(N)ncnc1N[C@@H](C)c1nc2cccc(Cl)c2c(=O)n1-c1ccccc1` [Compound 19b, 2-((S)-1-(6-amino-5-((S)-3-hydroxybut-1-ynyl)pyrimidin-4-ylamino)ethyl)-5-chloro-3-phenylquinazolin-4(3H)-one], the IC50 at PI3Kβ (bound given in uM) is over 1 µM; at PI3Kγ, over 1 µM; against PI3Kα, over 1 µM; at PI3Kδ (bound given in nM), under 100 nM.
Take `C[C@H](Nc1ncnc(N)c1C#Cc1ccc(C(=O)O)cn1)c1nc2cccc(Cl)c2c(=O)n1-c1ccccc1` [Compound 138a, (S)-6-((4-amino-6-((1-(5-chloro-4-oxo-3-phenyl-3,4-dihydroquinazolin-2-yl)ethyl)amino)pyrimidin-5-yl)ethynyl)nicotinic acid]: the IC50 was over 1 µM at PI3Kβ (bound given in uM), over 1 µM on PI3Kγ, over 1 µM against PI3Kα and under 100 nM at PI3Kδ (bound given in nM).
In the case of `C[C@H](Nc1ncnc(N)c1C#Cc1ccc(F)cn1)c1nc2cccc(Cl)c2c(=O)n1-c1cccc(-c2ccccc2)c1` [Compound 60a, (S)-3-([1,1′-biphenyl]-3-yl)-2-(1-((6-amino-5-((5-fluoropyridin-2-yl)ethynyl)pyrimidin-4-yl)amino)ethyl)-5-chloroquinazolin-4(3H)-one], the IC50 at PI3Kβ (bound given in uM) was over 1 µM; on PI3Kγ it was over 1 µM; against PI3Kα, over 1 µM; on PI3Kδ (bound given in nM), under 100 nM.
For `C[C@H](Nc1ncnc(N)c1C#Cc1ccc(F)cn1)c1nc2cccc(F)c2c(=O)n1-c1ccccc1` [Compound 8a, (S)-2-(1-(6-amino-5-((5-fluoropyridin-2-yl)ethynyl)pyrimidin-4-ylamino)ethyl)-5-fluoro-3-phenylquinazolin-4(3H)-one], the half-inhibitory concentration (IC50) against PI3Kβ (bound given in uM) is over 1 µM; against PI3Kγ it was over 1 µM; at PI3Kα, over 1 µM; at PI3Kδ (bound given in nM) it was under 100 nM.
As to `COc1cccc(-n2c([C@H](C)Nc3ncnc(N)c3C#Cc3ncccc3F)nc3cccc(Cl)c3c2=O)c1C` [81-2a], the IC50 at PI3Kβ (bound given in uM) is over 1 µM; against PI3Kγ, over 1 µM; against PI3Kα, over 1 µM; on PI3Kδ (bound given in nM), under 100 nM.
Regarding `C[C@H](Nc1ncnc(N)c1C#Cc1cnccn1)c1nc2ccc(F)cc2c(=O)n1-c1cccc(C#N)c1` [Compound 95a, (S)-3-(2-(1-((6-amino-5-(pyrazin-2-ylethynyl)pyrimidin-4-yl)amino)ethyl)-6-fluoro-4-oxoquinazolin-3(4H)-yl)benzonitrile], the IC50 is over 1 µM against PI3Kβ (bound given in uM), over 1 µM against PI3Kγ, over 1 µM on PI3Kα and under 100 nM at PI3Kδ (bound given in nM).
Regarding `C[C@H](Nc1ncnc(N)c1C#Cc1cnccn1)c1nc2cccc(F)c2c(=O)n1-c1cccc(F)c1` [Compound 101a, (S)-2-(1-((6-amino-5-(pyrazin-2-ylethynyl)pyrimidin-4-yl)amino)ethyl)-5-fluoro-3-(3-fluorophenyl)quinazolin-4(3H)-one], the half-maximal inhibitory concentration (IC50) against PI3Kβ (bound given in uM) was over 1 µM; on PI3Kγ, over 1 µM; against PI3Kα, over 1 µM; at PI3Kδ (bound given in nM), under 100 nM.
Take `CCc1cccc(-n2c([C@H](C)Nc3ncnc(N)c3C#Cc3ccc(F)cn3)nc3cccc(Cl)c3c2=O)c1` [Compound 61a, (S)-2-(1-((6-amino-5-((5-fluoropyridin-2-yl)ethynyl)pyrimidin-4-yl)amino)ethyl)-5-chloro-3-(3-ethylphenyl)quinazolin-4(3H)-one]: the IC50 on PI3Kβ (bound given in uM) was over 1 µM; against PI3Kγ, over 1 µM; on PI3Kα it was over 1 µM; at PI3Kδ (bound given in nM) it was under 100 nM.
With `C[C@H](Nc1ncnc(N)c1C#Cc1ccc(F)cn1)c1nc2ccc(F)cc2c(=O)n1-c1cccc(Cl)c1` [Compound 96a, (S)-2-(1-((6-amino-5-((5-fluoropyridin-2-yl)ethynyl)pyrimidin-4-yl)amino)ethyl)-3-(3-chlorophenyl)-6-fluoroquinazolin-4(3H)-one], the IC50 was over 1 µM on PI3Kβ (bound given in uM), over 1 µM against PI3Kγ, over 1 µM against PI3Kα and under 100 nM on PI3Kδ (bound given in nM).
Consider `COc1cc(F)cc(C#Cc2c(N)ncnc2N[C@@H](C)c2nc3cccc(F)c3c(=O)n2-c2ccccc2)c1` [Compound 65a, (S)-2-(1-((6-amino-5-((3-fluoro-5-methoxyphenyl)ethynyl)pyrimidin-4-yl)amino)ethyl)-5-fluoro-3-phenylquinazolin-4(3H)-one], for which the IC50 on PI3Kβ (bound given in uM) was over 1 µM; at PI3Kγ it was over 1 µM; on PI3Kα, over 1 µM; against PI3Kδ (bound given in nM), under 100 nM.
`C[C@H](Nc1ncnc(N)c1C#Cc1ncccc1CO)c1nc2cccc(Cl)c2c(=O)n1-c1ccccc1` [Compound 163a, (S)-2-(1-((6-amino-5-((3-(hydroxymethyl)pyridin-2-yl)ethynyl)pyrimidin-4-yl)amino)ethyl)-5-chloro-3-phenylquinazolin-4(3H)-one]: the IC50 against PI3Kβ (bound given in uM) was over 1 µM; on PI3Kγ, over 1 µM; on PI3Kα, over 1 µM; against PI3Kδ (bound given in uM) it was over 1000 nM.
As for `C[C@H](Nc1ncnc(N)c1C#Cc1ccc(F)cn1)c1nc2cccc(Cl)c2c(=O)n1N1CCNCC1` [Compound 127a, (S)-2-(1-((6-amino-5-((5-fluoropyridin-2-yl)ethynyl)pyrimidin-4-yl)amino)ethyl)-5-chloro-3-(piperazin-1-yl)quinazolin-4(3H)-one], the IC50 at PI3Kβ (bound given in nM) was under 0.1 µM; at PI3Kγ, over 1 µM; on PI3Kα it was over 1 µM; against PI3Kδ (bound given in nM), under 100 nM.
`C[C@H](Nc1ncnc(N)c1C#Cc1cnccn1)c1nc2c(F)cccc2c(=O)n1-c1cc(F)cc(F)c1` [Compound 100a, (S)-2-(1-((6-amino-5-(pyrazin-2-ylethynyl)pyrimidin-4-yl)amino)ethyl)-3-(3,5-difluorophenyl)-8-fluoroquinazolin-4(3H)-one]: the IC50 on PI3Kβ (bound given in uM) was over 1 µM; against PI3Kγ, over 1 µM; on PI3Kα, over 1 µM; against PI3Kδ (bound given in nM), under 100 nM.
Consider `C[C@H](Nc1ncnc(N)c1C#Cc1ccc(F)cn1)c1nc2cccc(Cl)c2c(=O)n1-c1cccc(C#N)c1` [Compound 92a, (S)-3-(2-(1-((6-amino-5-((5-fluoropyridin-2-yl)ethynyl)pyrimidin-4-yl)amino)ethyl)-5-chloro-4-oxoquinazolin-3(4H)-yl)benzonitrile], for which the IC50 against PI3Kβ (bound given in uM) was over 1 µM; on PI3Kγ, over 1 µM; against PI3Kα, over 1 µM; at PI3Kδ (bound given in nM), under 100 nM.
For `CCCCc1cccc(-n2c([C@H](C)Nc3ncnc(N)c3C#Cc3ccc(F)cn3)nc3cccc(Cl)c3c2=O)c1` [Compound 57a, (S)-2-(1-((6-amino-5-((5-fluoropyridin-2-yl)ethynyl)pyrimidin-4-yl)amino)ethyl)-3-(3-butylphenyl)-5-chloroquinazolin-4(3H)-one], the half-maximal inhibitory concentration (IC50) at PI3Kβ (bound given in uM) was over 1 µM; at PI3Kγ, over 1 µM; at PI3Kα, over 1 µM; against PI3Kδ (bound given in nM) it was under 100 nM.
As for `C[C@H](Nc1ncnc(N)c1C#Cc1cnccn1)c1nc2cccc(C(F)F)c2c(=O)n1-c1cc(F)cc(F)c1` [Compound 66a, (S)-2-(1-((6-amino-5-(pyrazin-2-ylethynyl)pyrimidin-4-yl)amino)ethyl)-5-(difluoromethyl)-3-(3,5-difluorophenyl)quinazolin-4(3H)-one], the IC50 at PI3Kβ (bound given in uM) is over 1 µM; at PI3Kγ, over 1 µM; against PI3Kα, over 1 µM; against PI3Kδ (bound given in nM), under 100 nM.
Take `Cc1cccc2nc([C@H](C)Nc3ncnc(N)c3C#Cc3cnccn3)n(-c3cncc(F)c3)c(=O)c12` [Compound 120a, (S)-2-(1-((6-amino-5-(pyrazin-2-ylethynyl)pyrimidin-4-yl)amino)ethyl)-3-(5-fluoropyridin-3-yl)-5-methylquinazolin-4(3H)-one]: the 50% inhibitory concentration (IC50) is over 1 µM at PI3Kβ (bound given in uM), over 1 µM on PI3Kγ, over 1 µM on PI3Kα and under 100 nM at PI3Kδ (bound given in nM).
As to `COc1cccc(-n2c([C@H](C)Nc3ncnc(N)c3C#Cc3ncccc3F)nc3cccc(Cl)c3c2=O)c1C` [81-1a], the IC50 against PI3Kβ (bound given in uM) is over 1 µM; on PI3Kγ it was over 1 µM; at PI3Kα, over 1 µM; against PI3Kδ (bound given in nM), under 100 nM.
